From ChEMBL document CHEMBL5260810, “Inhibition of bromodomain-containing protein 9 for the prevention of epigenetically-defined drug resistance” (Bioorg Med Chem Lett, 2017)
The source made the active and inactive calls. No cut-off for these calls is given here.

How the values were obtained:
[1] = Cytotoxicity against human OVSAHO cells measured after 3 days; assay type: functional, cell-based; conditions: 72 h
[2] = Cytotoxicity against human CoCM-1 cells measured after 3 days; assay type: functional, cell-based; conditions: CoCM-1, 72 h
[3] = Cytotoxicity against human TYK-nu.CP-r cells measured after 3 days; assay type: functional, cell-based; conditions: 72 h
[4] = system: MOLM-13; experiment: Cytotoxicity against human MOLM-13 cells measured after 3 days; assay type: functional, cell-based; conditions: MOLM-13, 72 h
[5] = Cytotoxicity against human LUDLU-1 cells measured after 3 days; assay type: functional, cell-based; conditions: LUDLU-1, 72 h
[6] = system: SNU-182; experiment: Cytotoxicity against human SNU-182 cells measured after 3 days; assay type: functional, cell-based; conditions: SNU-182, 72 h
[7] = Cytotoxicity against human VP267 cells measured after 3 days; assay type: functional, cell-based; conditions: VP267, 72 h
[8] = system: OAW-42; experiment: Cytotoxicity against human OAW-42 cells measured after 3 days; assay type: functional, cell-based; conditions: OAW-42, 72 h
[9] = Cytotoxicity against human EFM-192A cells measured after 3 days; assay type: functional, cell-based; conditions: 72 h
[10] = Cytotoxicity against human JHH-6 cells measured after 3 days; assay type: functional, cell-based; conditions: JHH-6, 72 h
[11] = system: DU-4475; experiment: Cytotoxicity against human DU-4475 cells after 8 days; assay type: functional, cell-based; conditions: DU-4475, 192 h
[12] = Cytotoxicity against human HCC1428 cells measured after 8 days; assay type: functional, cell-based; conditions: HCC1428, 192 h
[13] = system: U-266; experiment: Cytotoxicity against human U266B1 cells measured after 3 days; assay type: functional, cell-based; conditions: U-266, 72 h
[14] = Cytotoxicity against human KMM-1 cells measured after 3 days; assay type: functional, cell-based; conditions: KMM-1, 72 h
[15] = system: AMO1; experiment: Cytotoxicity against human AMO1 cells measured after 3 days; assay type: functional, cell-based; conditions: AMO1, 72 h
[16] = system: HMEC; experiment: Cytotoxicity against HMEC cells measured after 8 days; assay type: functional, cell-based; conditions: Homo sapiens, 192 h
[17] = Cytotoxicity against human OV56 cells measured after 3 days; assay type: functional, cell-based; conditions: OV56, 72 h
[18] = system: RPMI-8226; experiment: Cytotoxicity against human RPMI-8226 cells measured after 3 days; assay type: functional, cell-based; conditions: RPMI-8226, 72 h
[19] = Cytotoxicity against human COV362 cells measured after 3 days; assay type: functional, cell-based; conditions: COV362, 72 h
[20] = system: Granta-519; experiment: Cytotoxicity against human Granta-519 cells measured after 3 days; assay type: functional, cell-based; conditions: Granta-519, 72 h
[21] = system: HCC1954; experiment: Cytotoxicity against human HCC1954 cells measured after 3 days; assay type: functional, cell-based; conditions: HCC1954, 72 h
[22] = system: HepG2; experiment: Cytotoxicity against human HepG2 cells measured after 3 days; assay type: functional, cell-based; conditions: HepG2, 72 h
[23] = Cytotoxicity against human OV7 cells measured after 3 days; assay type: functional, cell-based; conditions: OV7, 72 h
[24] = system: NCI-H520; experiment: Cytotoxicity against human NCI-H520 cells measured after 3 days; assay type: functional, cell-based; conditions: NCI-H520, 72 h
[25] = system: Huh-7; experiment: Cytotoxicity against human Huh-7 cells measured after 3 days; assay type: functional, cell-based; conditions: Huh-7, 72 h
[26] = Cytotoxicity against human NTERA-2 cells after 8 days; assay type: functional, cell-based; conditions: NTERA2, 192 h
[27] = system: JeKo-1; experiment: Cytotoxicity against human JeKo-1 cells measured after 3 days; assay type: functional, cell-based; conditions: JeKo-1, 72 h
[28] = system: SW626; experiment: Cytotoxicity against human SW626 cells measured after 3 days; assay type: functional, cell-based; conditions: SW626, 72 h
[29] = system: BT-20; experiment: Cytotoxicity against human BT-20 cells measured after 3 days; assay type: functional, cell-based; conditions: BT-20, 72 h
[30] = Cytotoxicity against human HCC3153 cells measured after 8 days; assay type: functional, cell-based; conditions: HCC3153, 192 h
[31] = system: CA46; experiment: Cytotoxicity against human CA46 cells measured after 3 days; assay type: functional, cell-based; conditions: CA46, 72 h
[32] = Cytotoxicity against human NCE-G 141 cells measured after 3 days; assay type: functional, cell-based; conditions: NCE-G 141, 72 h
[33] = Cytotoxicity against human COLO-704 cells measured after 3 days; assay type: functional, cell-based; conditions: COLO 704, 72 h
[34] = Cytotoxicity against human MT-3 cells measured after 3 days; assay type: functional, cell-based; conditions: MT-3, 72 h
[35] = Cytotoxicity against human MCAS cells measured after 3 days; assay type: functional, cell-based; conditions: 72 h
[36] = system: JJN-3; experiment: Cytotoxicity against human JJN-3 cells measured after 3 days; assay type: functional, cell-based; conditions: JJN-3, 72 h
[37] = system: SW982; experiment: Cytotoxicity against human SW982 cells measured after 3 days; assay type: functional, cell-based; conditions: SW982, 72 h
[38] = system: HCC1187; experiment: Cytotoxicity against human HCC1187 cells measured after 3 days; assay type: functional, cell-based; conditions: HCC1187, 72 h
[39] = Cytotoxicity against human BM-1604 cells measured after 3 days; assay type: functional, cell-based; conditions: BM-1604, 72 h
[40] = system: NAMALVA; experiment: Cytotoxicity against human NAMALVA cells measured after 3 days; assay type: functional, cell-based; conditions: 72 h
[41] = system: PLC-PRF-5; experiment: Cytotoxicity against human PLC-PRF-5 cells measured after 3 days; assay type: functional, cell-based; conditions: PLC-PRF-5, 72 h
[42] = Cytotoxicity against human HLF cells measured after 3 days; assay type: functional, cell-based; conditions: 72 h
[43] = system: SNU-449; experiment: Cytotoxicity against human SNU-449 cells measured after 3 days; assay type: functional, cell-based; conditions: SNU-449, 72 h
[44] = system: SNU-398; experiment: Cytotoxicity against human SNU-398 cells measured after 3 days; assay type: functional, cell-based; conditions: SNU-398, 72 h
[45] = system: RMG-I; experiment: Cytotoxicity against human RMG-I cells measured after 3 days; assay type: functional, cell-based; conditions: 72 h
[46] = Cytotoxicity against human Karpas-620 cells measured after 3 days; assay type: functional, cell-based; conditions: Karpas-620, 72 h
[47] = system: DOV13; experiment: Cytotoxicity against human DOV13 cells measured after 3 days; assay type: functional, cell-based; conditions: DOV13, 72 h
[48] = system: HEY; experiment: Cytotoxicity against human HEY cells measured after 3 days; assay type: functional, cell-based; conditions: 72 h
[49] = Cytotoxicity against human LS174T-HM7 cells measured after 3 days; assay type: functional, cell-based; conditions: LS174T-HM7, 72 h
[50] = Cytotoxicity against human KHM-1B cells measured after 3 days; assay type: functional, cell-based; conditions: 72 h
[51] = system: DOHH-2; experiment: Cytotoxicity against human DOHH-2 cells measured after 3 days; assay type: functional, cell-based; conditions: DOHH-2, 72 h
[52] = system: OCI-AML-3; experiment: Cytotoxicity against human OCI-AML-3 cells measured after 3 days; assay type: functional, cell-based; conditions: OCI-AML-3, 72 h
[53] = Cytotoxicity against human COV504 cells measured after 3 days; assay type: functional, cell-based; conditions: COV504, 72 h
[54] = system: MCF7; experiment: Antiproliferative activity against human MCF7 cells assessed as reduction in colony formation up to 20 uM supplemented with fresh medium containing compound every 3 days for 9 days by MTT staining based clonogenic assay; assay type: functional, cell-based; conditions: time 9.0 day
[55] = biological target: GABA-B receptor (Homo sapiens, UniProt O75899+Q9UBS5); experiment: Inhibition of human GABA-B receptor at 10 uM relative to control; assay type: protein-complex assay
[56] = system: MIA PaCa-2; experiment: Antiproliferative activity against human MIA PaCa-2 cells assessed as reduction in colony formation up to 20 uM supplemented with fresh medium containing compound every 3 days for 9 days by MTT staining based clonogenic assay; assay type: functional, cell-based; conditions: time 9.0 day
[57] = system: PANC-1; experiment: Antiproliferative activity against human PANC-1 cells assessed as reduction in colony formation up to 20 uM supplemented with fresh medium containing compound every 3 days for 9 days by MTT staining based clonogenic assay; assay type: functional, cell-based; conditions: time 9.0 day
[58] = system: BT-474; experiment: Antiproliferative activity against human BT-474 cells assessed as reduction in colony formation up to 20 uM supplemented with fresh medium containing compound every 3 days for 9 days by MTT staining based clonogenic assay; assay type: functional, cell-based; conditions: time 9.0 day

GABA-B receptor, sequence (Q9UBS5 whole entry): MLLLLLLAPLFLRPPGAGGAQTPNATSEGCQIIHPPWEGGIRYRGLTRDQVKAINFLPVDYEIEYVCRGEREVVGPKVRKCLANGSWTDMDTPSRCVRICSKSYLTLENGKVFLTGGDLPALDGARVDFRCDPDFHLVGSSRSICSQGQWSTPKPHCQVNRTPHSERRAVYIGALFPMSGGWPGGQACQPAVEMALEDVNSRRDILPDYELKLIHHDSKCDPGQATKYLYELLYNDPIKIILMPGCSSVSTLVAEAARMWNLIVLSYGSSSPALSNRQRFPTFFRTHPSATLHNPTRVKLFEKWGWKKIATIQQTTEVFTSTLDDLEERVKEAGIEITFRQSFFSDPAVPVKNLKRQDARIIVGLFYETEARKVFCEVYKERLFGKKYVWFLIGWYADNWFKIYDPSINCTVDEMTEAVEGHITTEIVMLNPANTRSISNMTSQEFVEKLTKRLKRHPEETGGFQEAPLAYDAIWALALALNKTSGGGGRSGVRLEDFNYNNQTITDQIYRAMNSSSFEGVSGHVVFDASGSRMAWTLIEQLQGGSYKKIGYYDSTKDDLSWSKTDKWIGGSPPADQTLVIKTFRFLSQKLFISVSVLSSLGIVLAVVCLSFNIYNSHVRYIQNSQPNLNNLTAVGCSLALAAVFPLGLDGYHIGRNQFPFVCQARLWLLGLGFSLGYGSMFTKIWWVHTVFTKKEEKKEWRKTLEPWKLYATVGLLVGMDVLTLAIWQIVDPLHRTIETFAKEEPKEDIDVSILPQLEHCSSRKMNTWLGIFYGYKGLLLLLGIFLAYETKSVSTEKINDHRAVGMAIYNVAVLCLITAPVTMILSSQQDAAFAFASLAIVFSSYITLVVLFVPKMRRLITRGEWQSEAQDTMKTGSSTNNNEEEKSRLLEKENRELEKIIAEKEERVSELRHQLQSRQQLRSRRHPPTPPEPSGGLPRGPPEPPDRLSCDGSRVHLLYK
GABA-B receptor, sequence (O75899 whole entry): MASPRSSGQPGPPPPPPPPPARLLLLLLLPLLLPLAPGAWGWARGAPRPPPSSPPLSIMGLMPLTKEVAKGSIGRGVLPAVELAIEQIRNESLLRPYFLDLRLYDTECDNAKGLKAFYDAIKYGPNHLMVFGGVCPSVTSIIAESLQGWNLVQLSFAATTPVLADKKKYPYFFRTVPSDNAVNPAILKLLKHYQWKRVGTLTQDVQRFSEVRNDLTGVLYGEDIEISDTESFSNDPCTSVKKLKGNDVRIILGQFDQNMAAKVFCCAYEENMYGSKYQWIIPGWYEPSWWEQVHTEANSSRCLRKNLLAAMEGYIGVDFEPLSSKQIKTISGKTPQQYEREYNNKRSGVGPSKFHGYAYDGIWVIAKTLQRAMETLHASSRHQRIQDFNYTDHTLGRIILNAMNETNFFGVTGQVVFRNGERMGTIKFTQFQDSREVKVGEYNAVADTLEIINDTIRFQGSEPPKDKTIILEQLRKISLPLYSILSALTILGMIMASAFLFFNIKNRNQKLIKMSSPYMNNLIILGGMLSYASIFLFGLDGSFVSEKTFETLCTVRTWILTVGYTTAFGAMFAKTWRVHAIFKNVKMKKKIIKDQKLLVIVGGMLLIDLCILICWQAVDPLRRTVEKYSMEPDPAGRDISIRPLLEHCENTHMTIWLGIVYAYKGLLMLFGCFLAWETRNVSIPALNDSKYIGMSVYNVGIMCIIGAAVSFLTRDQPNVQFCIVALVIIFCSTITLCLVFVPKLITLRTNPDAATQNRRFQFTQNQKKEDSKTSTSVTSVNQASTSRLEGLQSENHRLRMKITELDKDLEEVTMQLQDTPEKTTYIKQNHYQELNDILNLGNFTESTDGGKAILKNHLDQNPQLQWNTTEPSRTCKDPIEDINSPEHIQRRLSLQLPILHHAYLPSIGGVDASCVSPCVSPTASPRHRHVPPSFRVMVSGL

## C/C=C/Cn1cc(-c2cc(OC)c(C(=O)N3CCOCC3)cc2OC)c2cc(C)[nH]c2c1=O
[1]
  IC50: 5 µM
[2]
  IC50: 5 µM
[3]
  IC50: 5 µM
[4]
  IC50: 5 µM
[5]
  IC50: 5 µM
[6]
  IC50: 5 µM
[7]
  IC50: 5 µM
[8]
  IC50: 5 µM
[9]
  IC50: 5 µM
[10]
  IC50: 5 µM
[11]
  IC50: 2 µM
[12]
  IC50: 2 µM
[13]
  IC50: 5 µM
[14]
  IC50: 5 µM
[15]
  IC50: 5 µM
[16]
  IC50: 2 µM
[17]
  IC50: 5 µM
[18]
  IC50: 5 µM
[19]
  IC50: 5 µM
[20]
  IC50: 5 µM
[21]
  IC50: 5 µM
[22]
  IC50: 5 µM
[23]
  IC50: 5 µM
[24]
  IC50: 5 µM
[25]
  IC50: 5 µM
[26]
  IC50: 2 µM
[27]
  IC50: 5 µM
[28]
  IC50: 5 µM
[29]
  IC50: 5 µM
[30]
  IC50: 2 µM
[31]
  IC50: 5 µM
[32]
  IC50: 5 µM
[33]
  IC50: 5 µM
[34]
  IC50: 5 µM
[35]
  IC50: 5 µM
[36]
  IC50: 5 µM
[37]
  IC50: 5 µM
[38]
  IC50: 5 µM
[39]
  IC50: 5 µM
[40]
  IC50: 5 µM
[41]
  IC50: 5 µM
[42]
  IC50: 5 µM
[43]
  IC50: 5 µM
[44]
  IC50: 5 µM
[45]
  IC50: 5 µM
[46]
  IC50: 5 µM
[47]
  IC50: 5 µM
[48]
  IC50: 5 µM
[49]
  IC50: 5 µM
[50]
  IC50: 5 µM
[51]
  IC50: 5 µM
[52]
  IC50: 5 µM
[53]
  IC50: 5 µM

## C/C=C/Cn1cc(-c2ccc(C(C)(C)O)cc2OC)c2cc[nH]c2c1=O
[54]
  Activity: inactive
[55]
  IC50: 4 µM
[56]
  Activity: inactive
[57]
  Activity: inactive
[58]
  Activity: inactive
